Reference: ChEMBL document CHEMBL1201862, “PubChem BioAssay data set” (2004)
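Step 1: Grow cells in 96-well plates. Step 2: Expose to compound for 48 hours at 5 concentrations. Step 3: Interpolate endpoints linearly; if unreached, use highest concentration. GI50 is the concentration that inhibits growth by half.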 The source made the active and inactive calls. Rule as the data show it: active = GI50 up to about 1.1 µM and inactive = higher. Square brackets hold non-standard residues; d marks the D form. Peptide text beside a SMILES is read from it. * marks the point of attachment. ξ: configuration not given here. ξW = NC(Cc1c[nH]c2ccccc12)C(=O)O; X29 = O=C(O)[C@H]1CCC[C@H]1N*; ξF = NC(Cc1ccccc1)C(=O)O; Boc = CC(C)(C)OC(=O)*; ξK = NCCCCC(N)C(=O)O; ξT = CC(O)C(N)C(=O)O; tBu = CC(C)(C)*

Experiments:
Assay in all cases: DTP human tumour cell line panel, 48 h
786-0 = tested on: 786-0
A498 = tested on: A498
A549 = tested on: A549
ACHN = tested on: ACHN
CAKI-1 = tested on: CAKI-1
CCRF-CEM = tested on: CCRF-CEM
COLO 205 = tested on: COLO 205
DU-145 = tested on: DU-145
EKVX = tested on: EKVX
HCC 2998 = tested on: HCC 2998
HCT-116 = tested on: HCT-116
HCT-15 = tested on: HCT-15
HL-60 = tested on: HL-60
HOP-62 = tested on: HOP-62
HOP-92 = tested on: HOP-92
HT-29 = tested on: HT-29
Hs-578T = tested on: Hs-578T
IGROV-1 = tested on: IGROV-1
K562 = tested on: K562
KM12 = tested on: KM12
LOX IMVI = tested on: LOX IMVI
M14 = tested on: M14
MCF7 = tested on: MCF7
MDA-MB-231 = tested on: MDA-MB-231
MDA-MB-435 = tested on: MDA-MB-435
MDA-N = tested on: MDA-N
MOLT-4 = tested on: MOLT-4
Malme-3M = tested on: Malme-3M
NCI-H226 = tested on: NCI-H226
NCI-H23 = tested on: NCI-H23
NCI-H460 = tested on: NCI-H460
NCI-H522 = tested on: NCI-H522
NCI/ADR-RES = tested on: NCI/ADR-RES
OVCAR-3 = tested on: OVCAR-3
OVCAR-4 = tested on: OVCAR-4
OVCAR-5 = tested on: OVCAR-5
OVCAR-8 = tested on: OVCAR-8
PC-3 = tested on: PC-3
RPMI-8226 = tested on: RPMI-8226
RXF 393 = tested on: RXF 393
SF-268 = tested on: SF-268
SF-295 = tested on: SF-295
SF-539 = tested on: SF-539
SK-MEL-28 = tested on: SK-MEL-28
SK-MEL-2 = tested on: SK-MEL-2
SK-MEL-5 = tested on: SK-MEL-5
SK-OV-3 = tested on: SK-OV-3
SN12C = tested on: SN12C
SNB-19 = tested on: SNB-19
SNB-75 = tested on: SNB-75
SR = tested on: SR
SW-620 = tested on: SW-620
T47D = tested on: T47D
TK-10 = tested on: TK-10
U-251 = tested on: U-251
UACC-257 = tested on: UACC-257
UO-31 = tested on: UO-31
UACC-62 = tested on: UACC-62
BT-549 = tested on: BT-549

CC(C)(C)C(=O)C(C(=O)C(C)(C)C)C(=O)C(C)(C)C
GI50 (786-0): > 100 µM (inactive) | GI50 (A498): > 100 µM (inactive) | GI50 (A549): > 100 µM (inactive) | GI50 (ACHN): > 100 µM (inactive) | GI50 (CAKI-1): > 100 µM (inactive) | GI50 (CCRF-CEM): > 100 µM (inactive) | GI50 (COLO 205): > 100 µM (inactive) | GI50 (DU-145): > 100 µM (inactive) | GI50 (EKVX): > 100 µM (inactive) | GI50 (HCC 2998): > 100 µM (inactive) | GI50 (HCT-116): > 100 µM (inactive) | GI50 (HCT-15): > 100 µM | GI50 (HL-60): > 100 µM (inactive) | GI50 (HOP-62): > 100 µM (inactive) | GI50 (HOP-92): > 100 µM (inactive) | GI50 (HT-29): > 100 µM (inactive) | GI50 (Hs-578T): > 100 µM (inactive) | GI50 (IGROV-1): > 100 µM (inactive) | GI50 (K562): > 100 µM (inactive) | GI50 (KM12): > 100 µM (inactive) | GI50 (LOX IMVI): > 100 µM (inactive) | GI50 (M14): > 100 µM (inactive) | GI50 (MCF7): > 100 µM (inactive) | GI50 (MDA-MB-231): > 100 µM (inactive) | GI50 (MDA-MB-435): > 100 µM (inactive) | GI50 (MDA-N): > 100 µM (inactive) | GI50 (MOLT-4): > 100 µM (inactive) | GI50 (Malme-3M): > 100 µM (inactive) | GI50 (NCI-H226): > 100 µM (inactive) | GI50 (NCI-H23): > 100 µM (inactive) | GI50 (NCI-H460): > 100 µM (inactive) | GI50 (NCI-H522): > 100 µM (inactive) | GI50 (NCI/ADR-RES): > 100 µM (inactive) | GI50 (OVCAR-3): > 100 µM (inactive) | GI50 (OVCAR-4): > 100 µM (inactive) | GI50 (OVCAR-5): > 100 µM (inactive) | GI50 (OVCAR-8): > 100 µM (inactive) | GI50 (PC-3): > 100 µM (inactive) | GI50 (RPMI-8226): > 100 µM (inactive) | GI50 (RXF 393): > 100 µM (inactive) | GI50 (SF-268): > 100 µM (inactive) | GI50 (SF-295): > 100 µM (inactive) | GI50 (SF-539): > 100 µM (inactive) | GI50 (SK-MEL-28): > 100 µM (inactive) | GI50 (SK-MEL-2): > 100 µM (inactive) | GI50 (SK-MEL-5): > 100 µM (inactive) | GI50 (SK-OV-3): 43.5 µM (inactive) | GI50 (SN12C): > 100 µM (inactive) | GI50 (SNB-19): > 100 µM (inactive) | GI50 (SNB-75): 71 µM (inactive) | GI50 (SR): > 100 µM (inactive) | GI50 (SW-620): > 100 µM (inactive) | GI50 (T47D): > 100 µM (inactive) | GI50 (TK-10): > 100 µM (inactive) | GI50 (U-251): > 100 µM (inactive) | GI50 (UACC-257): > 100 µM (inactive) | GI50 (UO-31): > 100 µM (inactive)

CC(OC(C)(C)C)C(NC(=O)C(CCCCNC(=O)OC(C)(C)C)NC(=O)C(Cc1c[nH]c2ccccc12)NC(=O)C(N)Cc1ccccc1)C(=O)NC(Cc1ccccc1)C(=O)N[C@@H]1CCC[C@@H]1C(=O)O (stereo partly specified) (H-[ξF][ξW][ξK](Boc)[ξT](tBu)[ξF]-X29)
GI50 (786-0): > 100 µM (inactive) | GI50 (A549): > 100 µM (inactive) | GI50 (ACHN): > 100 µM (inactive) | GI50 (CAKI-1): > 100 µM (inactive) | GI50 (CCRF-CEM): 36.2 µM (inactive) | GI50 (COLO 205): 27.4 µM (inactive) | GI50 (DU-145): 46.2 µM (inactive) | GI50 (EKVX): > 100 µM (inactive) | GI50 (HCC 2998): 19.7 µM (inactive) | GI50 (HCT-116): 39.5 µM (inactive) | GI50 (HCT-15): > 10 µM | GI50 (HL-60): 29 µM (inactive) | GI50 (HOP-62): > 100 µM (inactive) | GI50 (HOP-92): 30.3 µM (inactive) | GI50 (HT-29): 29.6 µM (inactive) | GI50 (Hs-578T): 19.9 µM (inactive) | GI50 (IGROV-1): 51.4 µM (inactive) | GI50 (K562): 51.6 µM (inactive) | GI50 (KM12): 19.4 µM (inactive) | GI50 (LOX IMVI): 20.8 µM (inactive) | GI50 (M14): > 100 µM (inactive) | GI50 (MCF7): 27 µM (inactive) | GI50 (MDA-MB-231): 38.6 µM (inactive) | GI50 (MDA-MB-435): 37.2 µM (inactive) | GI50 (MDA-N): 52.1 µM (inactive) | GI50 (MOLT-4): 41.6 µM (inactive) | GI50 (Malme-3M): 40 µM (inactive) | GI50 (NCI-H226): 28.5 µM (inactive) | GI50 (NCI-H23): 34 µM (inactive) | GI50 (NCI-H460): > 100 µM (inactive) | GI50 (NCI-H522): 20.7 µM (inactive) | GI50 (NCI/ADR-RES): > 100 µM (inactive) | GI50 (OVCAR-3): 37.1 µM (inactive) | GI50 (OVCAR-4): 71.4 µM (inactive) | GI50 (OVCAR-5): 23.2 µM (inactive) | GI50 (OVCAR-8): > 100 µM (inactive) | GI50 (PC-3): 45.6 µM (inactive) | GI50 (RPMI-8226): 35.2 µM (inactive) | GI50 (RXF 393): > 100 µM (inactive) | GI50 (SF-268): 44.8 µM (inactive) | GI50 (SF-295): > 100 µM (inactive) | GI50 (SF-539): 19.4 µM (inactive) | GI50 (SK-MEL-28): 75.5 µM (inactive) | GI50 (SK-MEL-2): 16.7 µM (inactive) | GI50 (SK-MEL-5): 11.1 µM (inactive) | GI50 (SK-OV-3): 38.8 µM (inactive) | GI50 (SN12C): 28.2 µM (inactive) | GI50 (SNB-19): 33.6 µM (inactive) | GI50 (SNB-75): 59.6 µM (inactive) | GI50 (SR): 35.5 µM (inactive) | GI50 (SW-620): 47.1 µM (inactive) | GI50 (T47D): 33.8 µM (inactive) | GI50 (U-251): 24.3 µM (inactive) | GI50 (UACC-257): > 100 µM (inactive) | GI50 (UACC-62): 33.4 µM (inactive) | GI50 (UO-31): > 100 µM (inactive)

COc1cccc(-c2cc(O)c3cc(N)ccc3n2)c1
GI50 (786-0): 4.05 µM (inactive) | GI50 (A549): 5.94 µM (inactive) | GI50 (ACHN): 7.13 µM (inactive) | GI50 (BT-549): 5.81 µM (inactive) | GI50 (CCRF-CEM): 2.25 µM (inactive) | GI50 (COLO 205): 4.27 µM (inactive) | GI50 (EKVX): > 100 µM (inactive) | GI50 (HCC 2998): 6.55 µM (inactive) | GI50 (HCT-15): 3.47 µM | GI50 (HOP-62): 5.92 µM (inactive) | GI50 (HOP-92): 3.44 µM (inactive) | GI50 (HT-29): 3.22 µM (inactive) | GI50 (Hs-578T): 2.09 µM (inactive) | GI50 (IGROV-1): 5.06 µM (inactive) | GI50 (KM12): 3.62 µM (inactive) | GI50 (M14): 4.63 µM (inactive) | GI50 (MCF7): 3.94 µM (inactive) | GI50 (MDA-MB-231): 25.2 µM (inactive) | GI50 (MDA-MB-435): 0.834 µM (active) | GI50 (MOLT-4): 3.71 µM (inactive) | GI50 (Malme-3M): 2.14 µM (inactive) | GI50 (NCI-H23): 9.91 µM (inactive) | GI50 (NCI-H460): 3.75 µM (inactive) | GI50 (NCI-H522): 2.39 µM (inactive) | GI50 (NCI/ADR-RES): 2.54 µM (inactive) | GI50 (OVCAR-5): > 100 µM (inactive) | GI50 (OVCAR-8): 9.16 µM (inactive) | GI50 (PC-3): 2.09 µM (inactive) | GI50 (SF-539): 2.35 µM (inactive) | GI50 (SK-MEL-28): 7.62 µM (inactive) | GI50 (SK-MEL-5): 2.88 µM (inactive) | GI50 (SK-OV-3): 2.3 µM (inactive) | GI50 (SN12C): 7.05 µM (inactive) | GI50 (SNB-19): 5.26 µM (inactive) | GI50 (SNB-75): 2.75 µM (inactive) | GI50 (SW-620): 1.94 µM (inactive) | GI50 (TK-10): 6.79 µM (inactive) | GI50 (UACC-62): 2.92 µM (inactive)
